Reference: patent US20230048888A1, “USE OF TRIAZOLOTRIAZINE DERIVATIVE IN TREATMENT OF DISEASES” (ZHEJIANG VIMGREEN PHARMACEUTICALS, LTD., priority 2019, published 2023)
Like-named read-outs stand apart in the source and are kept apart here.

Test: Pharmacokinetics of acetate of Compound 22 in SD rats with single and repeated administration
Format: in vivo
Details: Sprague-Dawley, rat, plasma; for AUC(0-t): read-out: AUC0-t; for Cmax: read-out: Cmax; for half-life: read-out: T1/2 (converted); for Tmax: read-out: Tmax (median)
Method: The formulation for Group 5 was prepared before administration on Day 1, and then, divided into daily doses and stored at 5±3° C. After taking out the formulations on the day of administration, the formulations should be let stand at room temperature for at least 30 minutes before administration.
After blood collection, the blood collection tube containing the anticoagulant was turned upside down several times to mix well, and placed on wet ice before centrifugation. Within 60 minutes after blood collection, the samples were centrifuged at 2000 g for 10 minutes at 2-8° C. to separate red blood cells, thereby obtaining plasma samples. The plasma samples were transferred to cryovials and stored at −75±15° C. until analysis.
Blood samples were collected from SD rats at room temperature before administration and within 24 hours after administration. All collected samples were placed on wet ice before centrifugation and stored at −75±15° C. until analysis.
The mass spectrometer was Applied Biosystems/AB Sciex Triple Quad 4500.
Pharmacokinetic data was calculated using the linear logarithmic trapezoidal method, with a weight of 1/(Y*Y). Samples with the sample concentration below the lower limit of quantification were excluded from the calculation of pharmacokinetic parameters. […] The mean time to peak (Tmax) was represented as a median.

[1] = both sexes, po, 63 mg/kg, Group 5 PO 63 mg/kg repeated, Day 7, Overall
[2] = both sexes, po, 189 mg/kg, Group 4 PO 189 mg/kg single, Overall
[3] = female, iv, 2 mg/kg, Group 1 IV 2.0 mg/kg single, Female
[4] = female, po, 21 mg/kg, Group 2 PO 21 mg/kg single, Female
[5] = female, po, 63 mg/kg, Group 3 PO 63 mg/kg single, Female
[6] = female, po, 63 mg/kg, Group 5 PO 63 mg/kg repeated, Day 1, Female
[7] = female, po, 63 mg/kg, Group 5 PO 63 mg/kg repeated, Day 7, Female
[8] = female, po, 189 mg/kg, Group 4 PO 189 mg/kg single, Female
[9] = male, iv, 2 mg/kg, Group 1 IV 2.0 mg/kg single, Male
[10] = male, po, 21 mg/kg, Group 2 PO 21 mg/kg single, Male
[11] = male, po, 63 mg/kg, Group 3 PO 63 mg/kg single, Male
[12] = male, po, 63 mg/kg, Group 5 PO 63 mg/kg repeated, Day 1, Male
[13] = male, po, 63 mg/kg, Group 5 PO 63 mg/kg repeated, Day 7, Male
[14] = male, po, 189 mg/kg, Group 4 PO 189 mg/kg single, Male

For `CC(=O)O.Nc1nc(NCCc2ccc(NC3COC3)cc2)nc2nc(-c3ccco3)nn12` [Acetate of Compound 22, 2-(furan-2-yl)-N5-(4-(oxetane-3-ylamino)phenethyl)-[1,2,4]triazolo[1,5-a][1,3,5]triazine-5,7-diamine acetate], the AUC(0-t) [1] was 127 ± 40.7 µg·h/mL, the Cmax [1] was 38300 ± 8840 ng/mL and the half-life [1] was 3.21 ± 0.615 h. It also gave a Tmax [1] of 1 h, an AUC(0-t) [2] of 241 ± 39.1 µg·h/mL and a Cmax [2] of 51800 ± 11800 ng/mL. It also gave a half-life [2] of 5.26 ± 3.05 h, a Tmax [2] of 2 h and an AUC(0-t) [3] of 5.85 ± 0.149 µg·h/mL. It also gave a half-life [3] of 4.7 ± 3.22 h, an AUC(0-t) [4] of 43.5 ± 4.15 µg·h/mL and a Cmax [4] of 20100 ± 3860 ng/mL. It also gave a half-life [4] of 3.73 ± 0.771 h, a Tmax [4] of 0.5 h and an AUC(0-t) [5] of 137 ± 40.4 µg·h/mL. It also gave a Cmax [5] of 30500 ± 9710 ng/mL, a half-life [5] of 2.91 ± 0.949 h and a Tmax [5] of 1 h. It also gave an AUC(0-t) [6] of 142 ± 23.1 µg·h/mL, a Cmax [6] of 37700 ± 2380 ng/mL and a half-life [6] of 2.4 ± 0.523 h. For the same compound, the Tmax [6] was 2 h, the AUC(0-t) [7] was 157 ± 36.9 µg·h/mL and the Cmax [7] was 45600 ± 1550 ng/mL. The half-life [7] was 2.73 ± 0.359 h, the Tmax [7] was 1 h and the AUC(0-t) [8] was 248 ± 55.6 µg·h/mL. For the same compound, the Cmax [8] was 59600 ± 12100 ng/mL, the half-life [8] was 7.63 h and the Tmax [8] was 1 h. For the same compound, the AUC(0-t) [9] was 4.87 ± 0.601 µg·h/mL, the half-life [9] was 1.43 h and the AUC(0-t) [10] was 42 ± 10.5 µg·h/mL. It also gave a Cmax [10] of 16600 ± 4100 ng/mL, a half-life [10] of 3.21 ± 0.304 h and a Tmax [10] of 0.5 h. It also gave an AUC(0-t) [11] of 87.3 ± 3.04 µg·h/mL, a Cmax [11] of 24200 ± 2340 ng/mL and a half-life [11] of 3.1 ± 0.251 h. The Tmax [11] was 1 h, the AUC(0-t) [12] was 79.7 ± 31.5 µg·h/mL and the Cmax [12] was 19900 ± 9080 ng/mL. The half-life [12] was 4.26 ± 2.04 h, the Tmax [12] was 1 h and the AUC(0-t) [13] was 98.1 ± 14.7 µg·h/mL. It also gave a Cmax [13] of 31000 ± 5750 ng/mL, a half-life [13] of 3.69 ± 0.342 h and a Tmax [13] of 1 h. For the same compound, the AUC(0-t) [14] was 235 ± 24.3 µg·h/mL, the Cmax [14] was 44100 ± 4710 ng/mL and the half-life [14] was 3.68 ± 1.22 h. For the same compound, the Tmax [14] was 4 h.
